Data reported in patent publication US8426422B2, “Apoptosis-inducing agents for the treatment of cancer and immune and autoimmune diseases” (Abbvie Inc., priority 2009, dated 2013).

target: GST-Bcl-2 (Homo sapiens, UniProt P10415); experiment: Time Resolved-Fluorescence Resonance Energy Transfer (TR-FRET) Bcl-2 binding assay; settings: GST-Bcl-2 1 nM, F-Bak peptide probe 100 nM, Tb-anti-GST 1 nM; 3 hours at room temperature; Ki by Wang's equation
Procedure: Determination of the utility of compounds having Formula (I) as binders to and inhibitors of anti-apoptotic Bcl-2 proteins was performed using the Time Resolved-Fluorescence Resonance Energy Transfer (TR-FRET) Assay. Tb-anti-GST antibody was purchased from Invitrogen (Catalog No. PV4216).
Representative compounds were serially diluted in dimethyl sulfoxide (DMSO) starting at 50 μM (2x starting concentration; 10% DMSO) and 10 μL were transferred into a 384-well plate. The samples are then mixed on a shaker for 1 minute and incubated for an additional 3 hours at room temperature. For each assay, the probe/antibody and protein/probe/antibody were included on each assay plate as negative and positive controls, respectively. Fluorescence was measured on the ENVISION plate reader (Perkin Elmer) using a 340/35 nm excitation filter and 520/525 (F-Bak peptide) and 495/510 nm (Tb-labeled […] antibody) emission filters. Inhibition constants (Ki) are shown in TABLE 2 below and were determined using Wang's equation (Wang Z.-X. An Exact Mathematical Expression For Describing Competitive Binding Of Two Different Ligands To A Protein Molecule. FEBS Lett. 1995, 360:111-4).
The inhibition constant (Ki) is the dissociation constant of an enzyme-inhibitor complex or a protein/small molecule complex, wherein the small molecule is inhibiting binding of one protein to another protein. So a large Ki value indicates a low binding affinity and a small Ki value indicates a high binding affinity.
The compounds are therefore expected to have utility in treatment of diseases during which anti-apoptotic Bcl-2 protein is expressed.

GST-Bcl-2, sequence (P10415 whole entry): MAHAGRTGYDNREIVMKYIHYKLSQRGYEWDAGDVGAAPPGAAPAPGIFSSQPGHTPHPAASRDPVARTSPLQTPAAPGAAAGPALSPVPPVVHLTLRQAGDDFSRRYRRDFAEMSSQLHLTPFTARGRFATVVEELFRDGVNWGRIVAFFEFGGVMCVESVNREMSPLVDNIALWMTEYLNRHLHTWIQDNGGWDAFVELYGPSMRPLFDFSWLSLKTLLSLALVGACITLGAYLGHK

Row | Structure (SMILES) | Ki [nM]
1 | CN(C)CCOc1cccc(-c2ccc(Cl)cc2)c1CN1CCN(c2ccc(C(=O)NS(=O)(=O)c3cccc([N+](=O)[O-])c3)c(Oc3cccc4[nH]ccc34)c2)CC1 [Example 28, 4-[4-({4′-chloro-3-[2-(dimethylamino)ethoxy]-1,1′-biphenyl-2-yl}methyl)piperazin-1-yl]-2-(1H-indol-4-yloxy)-N-[(3-nitrophenyl)sulfonyl]benzamide] | 0.125
2 | CC1(C)CCC(CN2CCN(c3ccc(C(=O)NS(=O)(=O)c4ccc5ccccc5c4)c(Oc4ccc5[nH]ccc5c4)c3)CC2)=C(c2ccc(Cl)cc2)C1 [Example 36, 4-(4-{[2-(4-chlorophenyl)-4,4-dimethylcyclohex-1-en-1-yl]methyl}piperazin-1-yl)-2-(1H-indol-5-yloxy)-N-(2-naphthylsulfonyl)benzamide] | 31.7
3 | O=C(NS(=O)(=O)c1ccc(Br)cc1)c1ccc(N2CCN(Cc3ccccc3-c3ccc(Cl)cc3)CC2)cc1 [Example 11, N-[(4-bromophenyl)sulfonyl]-4-{4-[(4′-chloro-1,1′-biphenyl-2-yl)methyl]piperazin-1-yl}benzamide] | 208
4 | O=C(NS(=O)(=O)c1ccccc1)c1ccc(N2CCN(Cc3ccccc3-c3ccc(Cl)cc3)CC2)cc1 [Example 6, 4-{4-[(4′-chloro-1,1′-biphenyl-2-yl)methyl]piperazin-1-yl}-N-(phenylsulfonyl)benzamide] | 212
5 | O=C(NS(=O)(=O)c1cccc(F)c1)c1ccc(N2CCN(Cc3ccccc3-c3ccc(Cl)cc3)CC2)cc1 [Example 20, 4-{4-[(4′-chloro-1,1′-biphenyl-2-yl)methyl]piperazin-1-yl}-N-[(3-fluorophenyl)sulfonyl]benzamide] | 280
6 | CC1(C)CCC(CN2CCN(c3ccc(C(=O)NS(=O)(=O)c4cccc(F)c4)c(Oc4ccc5[nH]ccc5c4)c3)CC2)=C(c2ccc(Cl)cc2)C1 [Example 35, 4-(4-{[2-(4-chlorophenyl)-4,4-dimethylcyclohex-1-en-1-yl]methyl}piperazin-1-yl)-N-[(3-fluorophenyl)sulfonyl]-2-(1H-indol-5-yloxy)benzamide] | 8.84
7 | CC1(C)CCC(CN2CCN(c3ccc(C(=O)NS(=O)(=O)c4cccc5cnccc45)c(Oc4ccc5[nH]ccc5c4)c3)CC2)=C(c2ccc(Cl)cc2)C1 [Example 37, 4-(4-{[2-(4-chlorophenyl)-4,4-dimethylcyclohex-1-en-1-yl]methyl}piperazin-1-yl)-2-(1H-indol-5-yloxy)-N-(isoquinolin-5-ylsulfonyl)benzamide] | 10.6
8 | CC1(C)CCC(CN2CCN(c3ccc(C(=O)NS(=O)(=O)c4cccc(Cl)c4)c(Oc4ccc5[nH]ccc5c4)c3)CC2)=C(c2ccc(Cl)cc2)C1 [Example 34, 4-(4-{[2-(4-chlorophenyl)-4,4-dimethylcyclohex-1-en-1-yl]methyl}piperazin-1-yl)-N-[(3-chlorophenyl)sulfonyl]-2-(1H-indol-5-yloxy)benzamide] | 5.14
9 | CC1(C)CCC(CN2CCN(c3ccc(C(=O)NS(=O)(=O)c4ccccc4)c(Oc4ccc5[nH]ccc5c4)c3)CC2)=C(c2ccc(Cl)cc2)C1 [Example 31, 4-(4-{[2-(4-chlorophenyl)-4,4-dimethylcyclohex-1-en-1-yl]methyl}piperazin-1-yl)-2-(1H-indol-5-yloxy)-N-(phenylsulfonyl)benzamide] | 21.6
10 | O=C(NS(=O)(=O)c1cccc([N+](=O)[O-])c1)c1ccc(N2CCN(Cc3ccccc3-c3ccc(Cl)cc3)CC2)cc1[S+]([O-])c1ccccc1 (stereo not shown) [Example 21, 4-{4-[(4′-chloro-1,1′-biphenyl-2-yl)methyl]piperazin-1-yl}-N-[(3-nitrophenyl)sulfonyl]-2-(phenylsulfinyl)benzamide] | 87.3
11 | O=C(NS(=O)(=O)c1cccc([N+](=O)[O-])c1)c1ccc(N2CCN(Cc3ccccc3-c3ccc(Cl)cc3)CC2)cc1Cc1ccccc1 [Example 15, 2-benzyl-4-{4-[(4′-chloro-1,1′-biphenyl-2-yl)methyl]piperazin-1-yl}-N-[(3-nitrophenyl)sulfonyl]benzamide] | 48
12 | O=C(NS(=O)(=O)c1cccc(F)c1)c1ccc(N2CCN(Cc3ccccc3-c3ccc(Cl)cc3)CC2)cc1Oc1ccccc1 [Example 23, 4-{4-[(4′-chloro-1,1′-biphenyl-2-yl)methyl]piperazin-1-yl}-N-[(3-fluorophenyl)sulfonyl]-2-phenoxybenzamide] | 27.3
13 | CC1(C)CCC(CN2CCN(c3ccc(C(=O)NS(=O)(=O)c4cccc(C(F)(F)F)c4)c(Oc4ccc5[nH]ccc5c4)c3)CC2)=C(c2ccc(Cl)cc2)C1 [Example 33, 4-(4-{[2-(4-chlorophenyl)-4,4-dimethylcyclohex-1-en-1-yl]methyl}piperazin-1-yl)-2-(1H-indol-5-yloxy)-N-{[3-(trifluoromethyl)phenyl]sulfonyl}benzamide] | 4.09
14 | O=C(NS(=O)(=O)c1ccc(F)cc1)c1ccc(N2CCN(Cc3ccccc3-c3ccc(Cl)cc3)CC2)cc1Oc1ccccc1 [Example 24, 4-{4-[(4′-chloro-1,1′-biphenyl-2-yl)methyl]piperazin-1-yl}-N-[(4-fluorophenyl)sulfonyl]-2-phenoxybenzamide] | 10.3
15 | O=C(NS(=O)(=O)c1cccc([N+](=O)[O-])c1)c1ccc(N2CCN(Cc3ccccc3-c3ccc(Cl)cc3)CC2)cc1Oc1ccccc1 [Example 9, 4-{4-[(4′-chloro-1,1′-biphenyl-2-yl)methyl]piperazin-1-yl}-N-[(3-nitrophenyl)sulfonyl]-2-phenoxybenzamide] | 26.5
16 | CN(C)CCOc1cccc(-c2ccc(Cl)cc2)c1CN1CCN(c2ccc(C(=O)NS(=O)(=O)c3ccccc3)c(Oc3cccc4[nH]ccc34)c2)CC1 [Example 29, 4-[4-({4′-chloro-3-[2-(dimethylamino)ethoxy]-1,1′-biphenyl-2-yl}methyl)piperazin-1-yl]-2-(1H-indol-4-yloxy)-N-(phenylsulfonyl)benzamide] | 2.27
17 | O=C(NS(=O)(=O)c1cccc([N+](=O)[O-])c1)c1ccc(N2CCN(Cc3ccccc3-c3ccc(Cl)cc3)CC2)cc1 [Example 5, 4-{4-[(4′-chloro-1,1′-biphenyl-2-yl)methyl]piperazin-1-yl}-N-[(3-nitrophenyl)sulfonyl]benzamide] | 185
18 | O=C(NS(=O)(=O)c1cccc([N+](=O)[O-])c1)c1ccc(N2CCN(Cc3ccccc3-c3ccc(Cl)cc3)CC2)cc1NCc1ccccc1 [Example 14, 2-(benzylamino)-4-{4-[(4′-chloro-1,1′-biphenyl-2-yl)methyl]piperazin-1-yl}-N-[(3-nitrophenyl)sulfonyl]benzamide] | 749
19 | CC1(C)CCC(CN2CCN(c3ccc(C(=O)NS(=O)(=O)c4cccc(C#N)c4)c(Oc4ccc5[nH]ccc5c4)c3)CC2)=C(c2ccc(Cl)cc2)C1 [Example 32, 4-(4-{[2-(4-chlorophenyl)-4,4-dimethylcyclohex-1-en-1-yl]methyl}piperazin-1-yl)-N-[(3-cyanophenyl)sulfonyl]-2-(1H-indol-5-yloxy)benzamide] | 5.94
20 | O=C(NS(=O)(=O)c1cccc([N+](=O)[O-])c1)c1ccc(N2CCN(Cc3ccccc3-c3ccc(Cl)cc3)CC2)cc1OCCc1ccccc1 [Example 8, 4-{4-[(4′-chloro-1,1′-biphenyl-2-yl)methyl]piperazin-1-yl}-N-[(3-nitrophenyl)sulfonyl]-2-(2-phenylethoxy)benzamide] | 975
21 | CC1(C)CCC(CN2CCN(c3ccc(C(=O)NS(=O)(=O)c4cccc([N+](=O)[O-])c4)c(Oc4ccc5[nH]ccc5c4)c3)CC2)=C(c2ccc(Cl)cc2)C1 [Example 30, 4-(4-{[2-(4-chlorophenyl)-4,4-dimethylcyclohex-1-en-1-yl]methyl}piperazin-1-yl)-2-(1H-indol-5-yloxy)-N-[(3-nitrophenyl)sulfonyl]benzamide] | 0.209
22 | O=C(NS(=O)(=O)c1cccc([N+](=O)[O-])c1)c1ccc(N2CCN(Cc3ccccc3-c3ccc(Cl)cc3)CC2)cc1CCc1ccccc1 [Example 18, 4-{4-[(4′-chloro-1,1′-biphenyl-2-yl)methyl]piperazin-1-yl}-N-[(3-nitrophenyl)sulfonyl]-2-(2-phenylethyl)benzamide] | 746
23 | O=C(NS(=O)(=O)c1cccc([N+](=O)[O-])c1)c1ccc(N2CCN(Cc3ccccc3-c3ccc(Cl)cc3)CC2)cc1Sc1ccccc1 [Example 13, 4-{4-[(4′-chloro-1,1′-biphenyl-2-yl)methyl]piperazin-1-yl}-N-[(3-nitrophenyl)sulfonyl]-2-(phenylthio)benzamide] | 72.9
24 | O=C(NS(=O)(=O)c1ccc(Cl)c([N+](=O)[O-])c1)c1ccc(N2CCN(Cc3ccccc3-c3ccc(Cl)cc3)CC2)cc1Oc1ccccc1 [Example 27, 4-{4-[(4′-chloro-1,1′-biphenyl-2-yl)methyl]piperazin-1-yl}-N-[(4-chloro-3-nitrophenyl)sulfonyl]-2-phenoxybenzamide] | 4.16
25 | O=C(NS(=O)(=O)c1ccc([N+](=O)[O-])cc1)c1ccc(N2CCN(Cc3ccccc3-c3ccc(Cl)cc3)CC2)cc1 [Example 16, 4-{4-[(4′-chloro-1,1′-biphenyl-2-yl)methyl]piperazin-1-yl}-N-[(4-nitrophenyl)sulfonyl]benzamide] | 273
